From paper PMC6409085, “Three odorant-binding proteins are involved in the behavioral response of Sogatella furcifera to rice plant volatiles” (PeerJ, 2019)
Several values for one entry are separate records, joined by “and”; a condition that tells them apart may be missing. Equal entries are not always repeated.

Assays:
SfurOBP1 = SfurOBP1 (Sogatella furcifera, UniProt V5T8N5); assay: biochemical; assay type: binding; conditions: for Fluorescence competitive binding assay, fluorescence intensity: OBP1, three replicate columns
Sequence of SfurOBP1 (V5T8N5 entry or part of it): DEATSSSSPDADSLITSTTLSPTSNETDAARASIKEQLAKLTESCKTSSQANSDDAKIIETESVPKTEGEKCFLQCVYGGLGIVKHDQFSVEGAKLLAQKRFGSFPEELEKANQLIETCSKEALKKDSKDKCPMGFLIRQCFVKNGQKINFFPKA
Outline: (§1)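 First, 2.0 µM protein in 50 mM Tris-HCl (pH 7.4) was titrated with 1-NPN to obtain K1-NPN. Then odorants (2–20 µM final) competed against 2.0 µM 1-NPN, with fluorescence (ex 337 nm) recorded after 2 min. Ki was computed from IC50 via Ki = IC50/(1 + [1-NPN]/K1-NPN).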

SfurOBP11 = SfurOBP11 (Sogatella furcifera, UniProt V5T6E3); assay: biochemical; assay type: binding
Sequence of SfurOBP11 (V5T6E3 entry or part of it): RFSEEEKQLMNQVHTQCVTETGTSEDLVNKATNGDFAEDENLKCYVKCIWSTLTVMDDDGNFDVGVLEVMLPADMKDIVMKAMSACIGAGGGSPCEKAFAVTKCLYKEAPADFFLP
Outline: as §1

SfurOBP2 = SfurOBP2 (Sogatella furcifera, UniProt V5T759); assay: biochemical; assay type: binding
Sequence of SfurOBP2 (V5T759 entry or part of it): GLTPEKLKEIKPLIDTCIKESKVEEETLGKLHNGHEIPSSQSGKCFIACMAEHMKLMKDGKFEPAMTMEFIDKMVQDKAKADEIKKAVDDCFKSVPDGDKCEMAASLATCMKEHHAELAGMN
Outline: as §1

SfurOBP3 = SfurOBP3 (Sogatella furcifera, UniProt V5T818); assay: biochemical; assay type: binding; conditions: for Fluorescence competitive binding assay, fluorescence intensity: OBP3, three replicate columns
Sequence of SfurOBP3 (V5T818 entry or part of it): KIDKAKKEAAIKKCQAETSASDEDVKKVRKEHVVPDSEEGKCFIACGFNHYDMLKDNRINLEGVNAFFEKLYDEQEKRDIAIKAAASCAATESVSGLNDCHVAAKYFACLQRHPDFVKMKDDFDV
Outline: as §1

S. furcifera adults = assay: Y-tube olfactometer behavioral trials; assay type: in vivo, Sogatella furcifera; conditions: odorant 50 µL/L vs hexane
Outline: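 Single S. furcifera adults (2 days post-emergence, starved 0.5 h) chose between odorant (100 µL of 50 µL/L on filter paper) and hexane control in a glass Y-tube, charcoal-filtered humidified air 300 mL/min per arm, 25 ± 1 °C, 50% RH. Choice scored if insect passed half an arm and stayed >1 min within 10 min; 45 insects per compound, chi-squared test.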

CC(=O)/C=C/C1=C(C)CCCC1(C)C [β-Ionone]
IC50 (SfurOBP1): > 20 µM
Fluorescence competitive binding assay, fluorescence intensity (SfurOBP1; ligand concentration 2 (μM)): 7051 and 7963 and 8084
Fluorescence competitive binding assay, fluorescence intensity (SfurOBP1; ligand concentration 4 (μM)): 8179 and 8456 and 7621
Fluorescence competitive binding assay, fluorescence intensity (SfurOBP1; ligand concentration 6 (μM)): 7891 and 8214 and 10941
Fluorescence competitive binding assay, fluorescence intensity (SfurOBP1; ligand concentration 8 (μM)): 7486 and 8333 and 7729
Fluorescence competitive binding assay, fluorescence intensity (SfurOBP1; ligand concentration 10 (μM)): 7166 and 7631 and 8078
Fluorescence competitive binding assay, fluorescence intensity (SfurOBP1; ligand concentration 12 (μM)): 13786 and 8045 and 7592
Fluorescence competitive binding assay, fluorescence intensity (SfurOBP1; ligand concentration 14 (μM)): 7676 and 7139 and 7314
Fluorescence competitive binding assay, fluorescence intensity (SfurOBP1; ligand concentration 16 (μM)): 6374 and 6355 and 6393
Fluorescence competitive binding assay, fluorescence intensity (SfurOBP1; ligand concentration 18 (μM)): 6677 and 6433 and 6722
Fluorescence competitive binding assay, fluorescence intensity (SfurOBP1; ligand concentration 20 (μM)): 6744 and 6442 and 6578
IC50 (SfurOBP11): 19.9 µM
Fluorescence intensity, fluorescence competitive binding assay, OBP11 (SfurOBP11; ligand concentration 2, replicate 1): 28050
Fluorescence intensity, fluorescence competitive binding assay, OBP11 (SfurOBP11; ligand concentration 2, replicate 2): 27736
Fluorescence intensity, fluorescence competitive binding assay, OBP11 (SfurOBP11; ligand concentration 2, replicate 3): 27612
Fluorescence intensity, fluorescence competitive binding assay, OBP11 (SfurOBP11; ligand concentration 4, replicate 1): 28634
Fluorescence intensity, fluorescence competitive binding assay, OBP11 (SfurOBP11; ligand concentration 4, replicate 2): 28801
Fluorescence intensity, fluorescence competitive binding assay, OBP11 (SfurOBP11; ligand concentration 4, replicate 3): 26168
Fluorescence intensity, fluorescence competitive binding assay, OBP11 (SfurOBP11; ligand concentration 6, replicate 1): 26910
Fluorescence intensity, fluorescence competitive binding assay, OBP11 (SfurOBP11; ligand concentration 6, replicate 2): 26403
Fluorescence intensity, fluorescence competitive binding assay, OBP11 (SfurOBP11; ligand concentration 6, replicate 3): 26657
Fluorescence intensity, fluorescence competitive binding assay, OBP11 (SfurOBP11; ligand concentration 8, replicate 1): 23184
Fluorescence intensity, fluorescence competitive binding assay, OBP11 (SfurOBP11; ligand concentration 8, replicate 2): 24499
Fluorescence intensity, fluorescence competitive binding assay, OBP11 (SfurOBP11; ligand concentration 8, replicate 3): 24103
Fluorescence intensity, fluorescence competitive binding assay, OBP11 (SfurOBP11; ligand concentration 10, replicate 1): 21871
Fluorescence intensity, fluorescence competitive binding assay, OBP11 (SfurOBP11; ligand concentration 10, replicate 2): 21831
Fluorescence intensity, fluorescence competitive binding assay, OBP11 (SfurOBP11; ligand concentration 10, replicate 3): 22447
Fluorescence intensity, fluorescence competitive binding assay, OBP11 (SfurOBP11; ligand concentration 12, replicate 1): 20048
Fluorescence intensity, fluorescence competitive binding assay, OBP11 (SfurOBP11; ligand concentration 12, replicate 2): 20727
Fluorescence intensity, fluorescence competitive binding assay, OBP11 (SfurOBP11; ligand concentration 12, replicate 3): 21593
Fluorescence intensity, fluorescence competitive binding assay, OBP11 (SfurOBP11; ligand concentration 14, replicate 1): 17047
Fluorescence intensity, fluorescence competitive binding assay, OBP11 (SfurOBP11; ligand concentration 14, replicate 2): 18839
Fluorescence intensity, fluorescence competitive binding assay, OBP11 (SfurOBP11; ligand concentration 14, replicate 3): 19615
Fluorescence intensity, fluorescence competitive binding assay, OBP11 (SfurOBP11; ligand concentration 16, replicate 1): 15254
Fluorescence intensity, fluorescence competitive binding assay, OBP11 (SfurOBP11; ligand concentration 16, replicate 2): 16765
Fluorescence intensity, fluorescence competitive binding assay, OBP11 (SfurOBP11; ligand concentration 16, replicate 3): 16613
Fluorescence intensity, fluorescence competitive binding assay, OBP11 (SfurOBP11; ligand concentration 18, replicate 1): 17103
Fluorescence intensity, fluorescence competitive binding assay, OBP11 (SfurOBP11; ligand concentration 18, replicate 2): 17364
Fluorescence intensity, fluorescence competitive binding assay, OBP11 (SfurOBP11; ligand concentration 18, replicate 3): 18167
Fluorescence intensity, fluorescence competitive binding assay, OBP11 (SfurOBP11; ligand concentration 20, replicate 1): 16580
Fluorescence intensity, fluorescence competitive binding assay, OBP11 (SfurOBP11; ligand concentration 20, replicate 2): 17841
Fluorescence intensity, fluorescence competitive binding assay, OBP11 (SfurOBP11; ligand concentration 20, replicate 3): 17555
IC50 (SfurOBP2): 20 µM
Fluorescence competitive binding assay, OBP2 (raw fluorescence reading) (SfurOBP2; ligand concentration 2 (unit not given), replicate column 1 of 3): 20663
Fluorescence competitive binding assay, OBP2 (raw fluorescence reading) (SfurOBP2; ligand concentration 2 (unit not given), replicate column 2 of 3): 19168
Fluorescence competitive binding assay, OBP2 (raw fluorescence reading) (SfurOBP2; ligand concentration 2 (unit not given), replicate column 3 of 3): 19828
Fluorescence competitive binding assay, OBP2 (raw fluorescence reading) (SfurOBP2; ligand concentration 4 (unit not given), replicate column 1 of 3): 20326
Fluorescence competitive binding assay, OBP2 (raw fluorescence reading) (SfurOBP2; ligand concentration 4 (unit not given), replicate column 2 of 3): 19347
Fluorescence competitive binding assay, OBP2 (raw fluorescence reading) (SfurOBP2; ligand concentration 4 (unit not given), replicate column 3 of 3): 18863
Fluorescence competitive binding assay, OBP2 (raw fluorescence reading) (SfurOBP2; ligand concentration 6 (unit not given), replicate column 1 of 3): 19895
Fluorescence competitive binding assay, OBP2 (raw fluorescence reading) (SfurOBP2; ligand concentration 6 (unit not given), replicate column 2 of 3): 18583
Fluorescence competitive binding assay, OBP2 (raw fluorescence reading) (SfurOBP2; ligand concentration 6 (unit not given), replicate column 3 of 3): 19617
Fluorescence competitive binding assay, OBP2 (raw fluorescence reading) (SfurOBP2; ligand concentration 8 (unit not given), replicate column 1 of 3): 17627
Fluorescence competitive binding assay, OBP2 (raw fluorescence reading) (SfurOBP2; ligand concentration 8 (unit not given), replicate column 2 of 3): 19078
Fluorescence competitive binding assay, OBP2 (raw fluorescence reading) (SfurOBP2; ligand concentration 8 (unit not given), replicate column 3 of 3): 16731
Fluorescence competitive binding assay, OBP2 (raw fluorescence reading) (SfurOBP2; ligand concentration 10 (unit not given), replicate column 1 of 3): 16901
Fluorescence competitive binding assay, OBP2 (raw fluorescence reading) (SfurOBP2; ligand concentration 10 (unit not given), replicate column 2 of 3): 16412
Fluorescence competitive binding assay, OBP2 (raw fluorescence reading) (SfurOBP2; ligand concentration 10 (unit not given), replicate column 3 of 3): 15901
Fluorescence competitive binding assay, OBP2 (raw fluorescence reading) (SfurOBP2; ligand concentration 12 (unit not given), replicate column 1 of 3): 15640
Fluorescence competitive binding assay, OBP2 (raw fluorescence reading) (SfurOBP2; ligand concentration 12 (unit not given), replicate column 2 of 3): 15758
Fluorescence competitive binding assay, OBP2 (raw fluorescence reading) (SfurOBP2; ligand concentration 12 (unit not given), replicate column 3 of 3): 15363
Fluorescence competitive binding assay, OBP2 (raw fluorescence reading) (SfurOBP2; ligand concentration 14 (unit not given), replicate column 1 of 3): 13711
Fluorescence competitive binding assay, OBP2 (raw fluorescence reading) (SfurOBP2; ligand concentration 14 (unit not given), replicate column 2 of 3): 13915
Fluorescence competitive binding assay, OBP2 (raw fluorescence reading) (SfurOBP2; ligand concentration 14 (unit not given), replicate column 3 of 3): 13962
Fluorescence competitive binding assay, OBP2 (raw fluorescence reading) (SfurOBP2; ligand concentration 16 (unit not given), replicate column 1 of 3): 12366
Fluorescence competitive binding assay, OBP2 (raw fluorescence reading) (SfurOBP2; ligand concentration 16 (unit not given), replicate column 2 of 3): 12873
Fluorescence competitive binding assay, OBP2 (raw fluorescence reading) (SfurOBP2; ligand concentration 16 (unit not given), replicate column 3 of 3): 12910
Fluorescence competitive binding assay, OBP2 (raw fluorescence reading) (SfurOBP2; ligand concentration 18 (unit not given), replicate column 1 of 3): 12338
Fluorescence competitive binding assay, OBP2 (raw fluorescence reading) (SfurOBP2; ligand concentration 18 (unit not given), replicate column 2 of 3): 12028
Fluorescence competitive binding assay, OBP2 (raw fluorescence reading) (SfurOBP2; ligand concentration 18 (unit not given), replicate column 3 of 3): 11737
Fluorescence competitive binding assay, OBP2 (raw fluorescence reading) (SfurOBP2; ligand concentration 20 (unit not given), replicate column 1 of 3): 11557
Fluorescence competitive binding assay, OBP2 (raw fluorescence reading) (SfurOBP2; ligand concentration 20 (unit not given), replicate column 2 of 3): 10983
Fluorescence competitive binding assay, OBP2 (raw fluorescence reading) (SfurOBP2; ligand concentration 20 (unit not given), replicate column 3 of 3): 11423
IC50 (SfurOBP3): 12 µM
Fluorescence competitive binding assay, fluorescence intensity (SfurOBP3; ligand concentration 2): 49137 and 48472 and 49801
Fluorescence competitive binding assay, fluorescence intensity (SfurOBP3; ligand concentration 4): 47017 and 46358 and 43965
Fluorescence competitive binding assay, fluorescence intensity (SfurOBP3; ligand concentration 6): 39740 and 42626 and 39389
Fluorescence competitive binding assay, fluorescence intensity (SfurOBP3; ligand concentration 8): 37430 and 36910 and 36009
Fluorescence competitive binding assay, fluorescence intensity (SfurOBP3; ligand concentration 10): 35904 and 33157 and 32677
Fluorescence competitive binding assay, fluorescence intensity (SfurOBP3; ligand concentration 12): 30694 and 33051 and 28374
Fluorescence competitive binding assay, fluorescence intensity (SfurOBP3; ligand concentration 14): 26192 and 26407 and 26489
Fluorescence competitive binding assay, fluorescence intensity (SfurOBP3; ligand concentration 16): 23097 and 23904 and 24653
Fluorescence competitive binding assay, fluorescence intensity (SfurOBP3; ligand concentration 18): 23846 and 23655 and 23476
Fluorescence competitive binding assay, fluorescence intensity (SfurOBP3; ligand concentration 20): 21994 and 24647 and 23321
binding affinity to SfurOBP3 (in words) (SfurOBP3; SfurOBP3): high binding affinities
behavioral response of S. furcifera (in words) (S. furcifera adults): strongly attracted
number of insects choosing hexane arm (S. furcifera adults; adults): 18
number of insects choosing volatilies arm (S. furcifera adults; adults): 10
number of insects failed (no choice) (S. furcifera adults; adults): 12
